The nature of data set [1]: logD by shake flask method (octanol / PBS pH 7.4, HPLC). The format is physicochemical. The note with it: octanol / PBS pH 7.4, shake flask. Summed up:
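Shake-flask partition of compound between octanol and phosphate-buffered saline at pH 7.4, with each phase quantified by HPLC to give LogD.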

Data set [2] concerns the target T1, recombinant human transglutaminase 2 (Homo sapiens, UniProt P21980).
T1 construct: purchased Zedira T022
T1 sequence (P21980 1-687): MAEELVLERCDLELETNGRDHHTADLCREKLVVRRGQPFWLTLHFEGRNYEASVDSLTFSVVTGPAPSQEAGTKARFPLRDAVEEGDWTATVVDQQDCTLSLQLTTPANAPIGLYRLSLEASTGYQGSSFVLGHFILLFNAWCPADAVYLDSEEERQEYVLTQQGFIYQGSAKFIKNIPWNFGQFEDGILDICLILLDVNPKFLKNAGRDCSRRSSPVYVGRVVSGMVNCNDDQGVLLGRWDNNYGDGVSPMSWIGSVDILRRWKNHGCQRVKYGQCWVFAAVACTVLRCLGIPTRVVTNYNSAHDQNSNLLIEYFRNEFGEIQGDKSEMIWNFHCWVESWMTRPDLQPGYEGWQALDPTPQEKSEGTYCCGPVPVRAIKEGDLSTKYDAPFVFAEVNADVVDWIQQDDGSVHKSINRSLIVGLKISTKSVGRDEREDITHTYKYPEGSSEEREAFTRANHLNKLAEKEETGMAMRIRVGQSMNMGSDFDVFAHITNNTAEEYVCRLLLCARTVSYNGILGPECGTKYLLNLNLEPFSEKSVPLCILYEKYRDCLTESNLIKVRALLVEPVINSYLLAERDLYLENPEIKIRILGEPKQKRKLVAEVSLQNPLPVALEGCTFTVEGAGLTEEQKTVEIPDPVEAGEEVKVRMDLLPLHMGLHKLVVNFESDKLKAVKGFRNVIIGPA
As to the kind of experiment: Transglutaminase assay (DCC-assay): incorporation of dansylcadaverine into dimethylcasein. The format is biochemical. The note with it: recombinant human TG2 10 nM; dansylcadaverine incorporation into dimethylcasein; read-out: IC50 TG2. A digest of the protocol:
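Recombinant human TG2 (10 nM final) incorporates dansylcadaverine into N,N-dimethylcasein. Reaction mix: 50 mM Tris-HCl, 10 mM CaCl2, 10 mM glutathione, 2.5% glycerol, 16.7 µM dansylcadaverine, 4 µM dimethylcasein, 200 mM NaCl, pH 8.0. Fluorescence (ex 330/em 500 nm) was followed 30 min at 37 °C; the 20–30 min slope, expressed as % of 2% DMSO control, gave IC50.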

The nature of data set [3]: Caco-2 permeability assay (CacoReady kit). It counts as in vitro ADME. The note with it: human, Caco-2, Caco-2 barrier, CacoReady kit; above 1×10^−6 cm/s classified as permeable. Summed up:
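Apparent permeability coefficients (Papp) were measured across Caco-2 cell barriers using a ready-to-use kit run per the supplier's protocol. Values serve as a predictor of oral/intestinal bioavailability.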

Structures are written as SMILES.

The compound `NC(=O)C(=O)CC[C@H](NC(=O)c1cc2ccccc2o1)C(=O)Nc1cccn(CC(=O)NC2C3CC4CC(C3)CC2C4)c1=O` (stereo partly drawn) [II-124, (S)-2-(benzofuran-2-carboxamido)-N1-(1-(2-(2-adamantylamino)-2-oxoethyl)-2-oxo-1,2-dihydropyridin-3-yl)-5-oxohexanediamide] returned a logD in data set [1] of 1 to 3. Also, in data set [2], the IC50 fell in the range of 40 to 400 nM. Besides, the Papp in data set [3] is 1 to 10 ×10⁻⁶ cm/s.
For `NC(=O)C(=O)CC[C@H](NC(=O)c1cc(Cl)sc1Cl)C(=O)Nc1cccn(CC(=O)NC2C3CC4CC(C3)CC2C4)c1=O` (stereo partly drawn) [II-125, (S)-2-(2,5-dichlorothiophene-3-carboxamido)-N1-(1-(2-(2-adamantylamino)-2-oxoethyl)-2-oxo-1,2-dihydropyridin-3-yl)-5-oxohexanediamide], in that order: 1 to 3, 40 to 400 nM and 1 to 10 ×10⁻⁶ cm/s.
As to `Cc1nc(C(F)(F)F)sc1C(=O)N[C@@H](CCC(=O)C(N)=O)C(=O)Nc1cccn(CC(=O)NC2C3CC4CC(C3)CC2C4)c1=O` (stereo partly drawn) [II-126, (S)-N1-(1-(2-(2-adamantylamino)-2-oxoethyl)-2-oxo-1,2-dihydropyridin-3-yl)-2-(4-methyl-2-(trifluoromethyl)thiazole-5-carboxamido)-5-oxohexanediamide], the logD in data set [1] is < 1. For the same compound, the IC50 in data set [2] was 40 to 400 nM. This compound yielded a Papp in data set [3] of 1 to 10 ×10⁻⁶ cm/s.
On to `Cn1nncc1C(=O)N[C@@H](CCC(=O)C(N)=O)C(=O)Nc1cccn(CC(=O)NC2C3CC4CC(C3)CC2C4)c1=O` (stereo partly drawn) [II-127, (S)-N1-(1-(2-(2-adamantylamino)-2-oxoethyl)-2-oxo-1,2-dihydropyridin-3-yl)-2-(1-methyl-1H-1,2,3-triazole-5-carboxamido)-5-oxohexanediamide], for which the logD in data set [1] is < 1. The IC50 in data set [2] lay in the range of 40 to 400 nM. Also, the Papp in data set [3] was < 1 ×10⁻⁶ cm/s.
`CNC(=O)C(=O)CC[C@H](NC(=O)c1cc(Cl)sc1Cl)C(=O)Nc1cccn(CC(=O)N[C@@H]2C[C@H]3CC[C@@H]2C3)c1=O` [II-128, (2S)-N1-(1-(2-((1R,2R,4S)-bicyclo[2.2.1]heptan-2-ylamino)-2-oxoethyl)-2-oxo-1,2-dihydropyridin-3-yl)-2-(2,5-dichlorothiophene-3-carboxamido)-N6-methyl-5-oxohexanediamide] displayed a logD in data set [1] of 1 to 3. Besides, in data set [2], the IC50 is 40 to 400 nM. Moreover, in data set [3], the Papp is 1 to 10 ×10⁻⁶ cm/s.
`CNC(=O)C(=O)CC[C@H](NC(=O)c1sc(C(F)(F)F)nc1C)C(=O)Nc1cccn(CC(=O)N[C@@H]2C[C@H]3CC[C@@H]2C3)c1=O` [II-129, (2S)-N1-(1-(2-((1R,2R,4S)-bicyclo[2.2.1]heptan-2-ylamino)-2-oxoethyl)-2-oxo-1,2-dihydropyridin-3-yl)-N6-methyl-2-(4-methyl-2-(trifluoromethyl)thiazole-5-carboxamido)-5-oxohexanediamide] gave a pH-dependent lipophilicity (logD) in data set [1] of 1 to 3. Besides, the IC50 in data set [2] is 40 to 400 nM. Also, the Papp in data set [3] is < 1 ×10⁻⁶ cm/s.
For `CNC(=O)C(=O)CC[C@H](NC(=O)c1cnnn1C)C(=O)Nc1cccn(CC(=O)N[C@@H]2C[C@H]3CC[C@@H]2C3)c1=O` [II-130, (2S)-N1-(1-(2-((1R,2R,4S)-bicyclo[2.2.1]heptan-2-ylamino)-2-oxoethyl)-2-oxo-1,2-dihydropyridin-3-yl)-N6-methyl-2-(1-methyl-1H-1,2,3-triazole-5-carboxamido)-5-oxohexanediamide], in that order: < 1, 40 to 400 nM and < 1 ×10⁻⁶ cm/s.
The corresponding values for `CNC(=O)C(=O)CC[C@H](NC(=O)c1cn[nH]n1)C(=O)Nc1cccn(CC(=O)NC2C3CC4CC(C3)CC2C4)c1=O` (stereo partly drawn) [II-131, (S)-N1-(1-(2-(2-adamantylamino)-2-oxoethyl)-2-oxo-1,2-dihydropyridin-3-yl)-N6-methyl-5-oxo-2-(2H-1,2,3-triazole-4-carboxamido) hexanediamide] are < 1, 40 to 400 nM and < 1 ×10⁻⁶ cm/s.

Source of the values: patent publication US20240383856A1 (Zedira GmbH, priority 2021, published 2024).
